Structures are written as SMILES.

DCN1, sequence (Q96GG9 58-259): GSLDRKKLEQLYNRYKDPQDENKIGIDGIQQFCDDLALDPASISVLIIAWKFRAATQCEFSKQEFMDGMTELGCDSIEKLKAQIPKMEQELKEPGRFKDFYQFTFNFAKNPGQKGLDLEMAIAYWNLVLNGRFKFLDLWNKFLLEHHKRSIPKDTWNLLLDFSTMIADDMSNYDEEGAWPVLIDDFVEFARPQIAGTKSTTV

This experiment has as its target DCN1 (Homo sapiens (Human), UniProt Q96GG9). The experiment can be described thus: Competitive FP binding assay. To be noted: read-out: Binding affinity to DCN1 (IC50). The procedure: The Fluorescence Polarization (FP) competitive binding assays were performed to accurately determine the binding affinities of our DCN1 inhibitors. A novel FAM labeled fluorescent probe compound (46) was designed and synthesized based on one of our potent small molecule DCN1 inhibitors. Equilibrium dissociation constants (Kd) values of 46 to both DCN1 and DCN2 proteins were determined from protein saturation experiments by monitoring the total FP values of mixtures composed with the fluorescent probe at a fixed concentration and proteins with increasing concentrations up to full saturation. Serial dilutions of proteins were mixed with 46 to a final volume of 200 μl in the assay buffer (100 mM phosphate buffer, pH=6.5, with 0.02% Tween-20 and 2% DMSO). Final probe concentration was 5 nM for both assays. Plates were incubated at room temperature for 30 minutes with gentle shaking to assure equilibrium. FP values in millipolarization units (mP) were measured using the Infinite M-1000 plate reader (Tecan U.S., Research Triangle Park, N.C.) in Microfluor 1 96-well, black, round-bottom plates (Thermo Scientific, Waltham, Mass.) at an excitation wavelength of 485 nm and an emission wavelength of 530 nm. Kd values of 46 were calculated by fitting the sigmoidal dose-dependent FP increases as a function of protein concentrations using Graphpad Prism 6.0 software (Graphpad Software, San Diego, Calif.).
Human DCN1 (residues 58-259) were cloned into a pDEST17 plasmid containing an N-terminal His6 tag. DCN2 (residues 62-259), DCN3 (residues 86-304), DCN4 (residues 102-292) and DCN5 (residues 47-237) were cloned into an N-terminal His6-TEV expression vector. Pure proteins were derived from the same expression and purification protocols. Plasmids were transformed into Rosetta2 cells, the cells were grown in Terrific Broth at 37° C. to an O.D.600>1.0 and induced with 0.4 mM Isopropyl β-D-1-thiogalactopyranoside overnight at 20° C. The pelleted cells were resuspended in lysis buffer containing 25 mM Tris-HCl, pH 7.5, 200 mM NaCl and protease inhibitors, sonicated and centrifuged at 34,000×g for 45 minutes to remove debris. Cleared lysate was incubated with Ni-NTA resin (Qiagen) prewashed with lysis buffer, for 1 hr at 4° C. The matrix was loaded into a column then washed with 25 mM Tris-HCl, pH 7.5, 200 mM NaCl and 10 mM imidazole. Protein was eluted with 25 mM Tris-HCl, pH 7.5, 200 mM NaCl and 300 mM imidazole, concentrated and applied to a Superdex 75 (GE Healthcare) column pre-equilibrated with 25 mM Tris pH 7.5, 200 mM NaCl and 1 mM DTT. For DCN2-5, the N-terminal His6 tag was removed prior to gel filtration. Tag removal was achieved through incubation with TEV protease during overnight dialysis against 25 mM Tris pH 7.5, 200 mM NaCl and 1 mM DTT and a second Ni-NTA column. DCN2-5 proteins were stored at −80° C. in 1 mg/mL fractions containing 5% glycerol. The uncleaved DCN1 protein was stored at −80° C. without glycerol.
Usually IC50 stands for the concentration that gives 50% inhibition. With `C=C(CN1CCS(=O)(=O)CC1)C(=O)NC[C@@H](NC(=O)[C@H](Cc1nc2ccc(C(C)C)cc2s1)NC(=O)CC)C1CCCCC1` [Example 28, N—((S)-2-cyclohexyl-2-((S)-3-(6-isopropylbenzo[d]thiazol-2-yl)-2-propionamidopropanamido)ethyl)-2-((1,1-dioxidothiomorpholino)methyl)acrylamide], the IC50 is less than 150 nM.

On to `C=C(CN1CCOCC1)C(=O)NC[C@H](Cc1ccc(F)cc1)NC(=O)[C@H](Cc1nc2ccc(C(C)C)cc2s1)NC(=O)CC` [Example 36, N—((S)-3-(4-fluorophenyl)-2-((S)-3-(6-isopropylbenzo[d]thiazol-2-yl)-2-propionamidopropanamido)propyl)-2-(morpholinomethyl)acrylamide], for which the IC50 was less than 150 nM.

For `C=C(CN1CCOCC1)C(=O)NC[C@H](Cc1ccccc1)NC(=O)[C@H](Cc1cn2cc(Cl)ccc2n1)NC(=O)CC` [Example 35, N—((S)-2-((S)-3-(6-chloroimidazo[1,2-a]pyridin-2-yl)-2-propionamidopropanamido)-3-phenylpropyl)-2-(morpholinomethyl)acrylamide], the IC50 was less than 300 nM.

As to `C=C(CN1CCN(CCO)CC1)C(=O)NC[C@@H](NC(=O)[C@H](Cc1nc2ccc(C(C)C)cc2s1)NC(=O)CC)C1CCCCC1` [Example 29, N—((S)-2-cyclohexyl-2-((S)-3-(6-isopropylbenzo[d]thiazol-2-yl)-2-propionamidopropanamido)ethyl)-2-((4-(2-hydroxyethyl)piperazin-1-yl)methyl)acrylamide], the IC50 was less than 150 nM.

With `CCC(=O)N[C@@H](Cc1nc2ccc(Cl)cc2s1)C(=O)N[C@H](CNC(=O)C1=CCCN(C)C1)Cc1ccccc1` [Example 12, N—((S)-2-((S)-3-(6-chlorobenzo[d]thiazol-2-yl)-2-propionamidopropanamido)-3-phenylpropyl)-1-methyl-1,2,5,6-tetrahydropyridine-3-carboxamide], the IC50 worked out at 292 nM.

Regarding `C=C(CN1CCOCC1)C(=O)NC[C@H](Cc1ccccc1)NC(=O)[C@H](Cc1nc2ccc(Cl)cc2s1)NC(=O)CC` [Example 3, N—((S)-2-((S)-3-(6-chlorobenzo[d]thiazol-2-yl)-2-propionamidopropanamido)-3-phenylpropyl)-2-(morpholinomethyl)acrylamide], the IC50 amounted to 156 nM.

Turning to `C=CC(=O)NC[C@@H](NC(=O)[C@H](Cc1nc2ccc(C(C)C)cc2s1)NC(=O)CC)C1CCCCC1` [Example 37, N—((S)-2-cyclohexyl-2-((S)-3-(6-isopropylbenzo[d]thiazol-2-yl)-2-propionamidopropanamido)ethyl)acrylamide], the IC50 was less than 200 nM.

For `C=C(CN1CCOCC1)C(=O)NC[C@H](Cc1ccccc1)NC(=O)[C@H](Cc1nc2ccc(CC)cc2s1)NC(=O)CC` [Example 8, N—((S)-2-((S)-3-(6-ethylbenzo[d]thiazol-2-yl)-2-propionamidopropanamido)-3-phenylpropyl)-2-(morpholinomethyl)acrylamide], the IC50 worked out at 99.8 nM.

As for `C=C(CN1CCC1)C(=O)NC[C@@H](NC(=O)[C@H](Cc1nc2ccc(C(C)C)cc2s1)NC(=O)CC)C1CCCCC1` [Example 25, 2-(azetidin-1-ylmethyl)-N—((S)-2-cyclohexyl-2-((S)-3-(6-isopropylbenzo[d]thiazol-2-yl)-2-propionamidopropanamido)ethyl)acrylamide], the IC50 is less than 150 nM.

For the compound `C=CC(=O)NC[C@H](Cc1ccccc1)NC(=O)[C@H](Cc1nc2ccc(Cl)cc2s1)NC(=O)CC` [Example 1, N—((S)-2-((S)-3-(6-chlorobenzo[d]thiazol-2-yl)-2-propionamidopropanamido)-3-phenylpropyl)acrylamide], the IC50 is 205 nM.

For the compound `CCC(=O)N[C@@H](Cc1nc2ccc(Cl)cc2s1)C(=O)N[C@H](CNC(=O)/C=C/CN(C)C)Cc1ccccc1` [Example 2, (E)-N—((S)-2-((S)-3-(6-chlorobenzo[d]thiazol-2-yl)-2-propionamidopropanamido)-3-phenylpropyl)-4-(dimethylamino)but-2-enamide], the IC50 was 153 nM.

Source of the values: patent US10500194B2, “Covalent small molecule DCN1 inhibitors and therapeutic methods using the same” (THE REGENTS OF THE UNIVERSITY OF MICHIGAN, priority 2017, dated 2019).
